Experimental data: ChEMBL document CHEMBL1133958, “Derivatives of (2R,3R,4S)-2-aminomethylpyrrolidine-3,4-diol are selective alpha-mannosidase inhibitors” (Bioorg Med Chem Lett, 2001)
Calls of active or inactive are those of the source. The calls are words filed in the database; no cut-off is given here.

Experiments:
[1] = molecular target: T1, Beta-glucosidase A (Caldicellulosiruptor saccharolyticus, UniProt P10482); assay: Inhibitory activity towards Beta-Glucosidase from Caldocellum saccharol.
[2] = system: Saccharomyces cerevisiae; assay: Percentage inhibition of Alpha-glucosidase from Baker yeast (isomaltase) at 1 mM
[3] = Percentage inhibition of Beta-galactosidase from Aspergillus oryzae at 1 mM; No inhibition
[4] = molecular target: T2, Alpha-glucosidase (Oryza sativa Japonica Group) (UniProt Q9LGC6); assay: Percentage inhibition of Alpha-glucosidase from Rice (maltase) at 1 mM; […]
T2 sequence (whole entry): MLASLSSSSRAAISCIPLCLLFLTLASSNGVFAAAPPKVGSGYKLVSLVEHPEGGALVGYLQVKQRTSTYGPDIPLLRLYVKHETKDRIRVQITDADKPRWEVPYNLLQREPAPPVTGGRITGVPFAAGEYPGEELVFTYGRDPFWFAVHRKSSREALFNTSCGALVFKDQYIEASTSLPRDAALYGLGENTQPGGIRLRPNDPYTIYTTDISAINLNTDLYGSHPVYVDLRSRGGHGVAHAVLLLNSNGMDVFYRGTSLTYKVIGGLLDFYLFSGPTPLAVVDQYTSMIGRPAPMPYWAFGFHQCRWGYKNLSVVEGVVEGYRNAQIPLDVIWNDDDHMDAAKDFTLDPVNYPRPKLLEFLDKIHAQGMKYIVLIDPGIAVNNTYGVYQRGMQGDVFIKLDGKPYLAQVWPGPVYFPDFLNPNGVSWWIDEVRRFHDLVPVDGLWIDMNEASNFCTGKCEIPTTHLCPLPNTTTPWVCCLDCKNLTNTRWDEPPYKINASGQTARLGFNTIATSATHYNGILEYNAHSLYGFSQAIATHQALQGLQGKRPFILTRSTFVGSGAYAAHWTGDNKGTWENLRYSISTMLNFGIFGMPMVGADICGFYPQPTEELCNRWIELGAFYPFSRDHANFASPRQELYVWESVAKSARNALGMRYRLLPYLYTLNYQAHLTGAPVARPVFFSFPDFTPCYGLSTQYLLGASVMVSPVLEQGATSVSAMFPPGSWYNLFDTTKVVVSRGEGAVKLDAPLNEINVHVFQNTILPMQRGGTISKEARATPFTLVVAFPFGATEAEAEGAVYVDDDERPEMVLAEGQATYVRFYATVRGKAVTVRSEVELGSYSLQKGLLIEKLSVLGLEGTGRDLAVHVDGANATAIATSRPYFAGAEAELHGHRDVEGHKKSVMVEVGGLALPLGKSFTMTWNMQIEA

[5] = molecular target: Beta-glucosidase A (Caldicellulosiruptor saccharolyticus) (UniProt P10482); assay: Percentage inhibition of Beta-Glucosidase from Caldocellum saccharol. at 1 mM
[6] = molecular target: Glucoamylase (Aspergillus niger) (UniProt P69328); assay: Percentage inhibition of Alpha-glucosidase from Aspergillus niger (amyloglucosidase) at 1 mM; No inhibition
[7] = system: Alpha-mannosidase (Prunus dulcis); assay: Percentage inhibition of Alpha-mannosidase from Almond at 1 mM
[8] = molecular target: T3, Beta-galactosidase (Aspergillus niger) (UniProt P29853); assay: Percentage inhibition of Beta-galactosidase from Aspergillus niger at 1 mM concentration
T3 sequence (whole entry): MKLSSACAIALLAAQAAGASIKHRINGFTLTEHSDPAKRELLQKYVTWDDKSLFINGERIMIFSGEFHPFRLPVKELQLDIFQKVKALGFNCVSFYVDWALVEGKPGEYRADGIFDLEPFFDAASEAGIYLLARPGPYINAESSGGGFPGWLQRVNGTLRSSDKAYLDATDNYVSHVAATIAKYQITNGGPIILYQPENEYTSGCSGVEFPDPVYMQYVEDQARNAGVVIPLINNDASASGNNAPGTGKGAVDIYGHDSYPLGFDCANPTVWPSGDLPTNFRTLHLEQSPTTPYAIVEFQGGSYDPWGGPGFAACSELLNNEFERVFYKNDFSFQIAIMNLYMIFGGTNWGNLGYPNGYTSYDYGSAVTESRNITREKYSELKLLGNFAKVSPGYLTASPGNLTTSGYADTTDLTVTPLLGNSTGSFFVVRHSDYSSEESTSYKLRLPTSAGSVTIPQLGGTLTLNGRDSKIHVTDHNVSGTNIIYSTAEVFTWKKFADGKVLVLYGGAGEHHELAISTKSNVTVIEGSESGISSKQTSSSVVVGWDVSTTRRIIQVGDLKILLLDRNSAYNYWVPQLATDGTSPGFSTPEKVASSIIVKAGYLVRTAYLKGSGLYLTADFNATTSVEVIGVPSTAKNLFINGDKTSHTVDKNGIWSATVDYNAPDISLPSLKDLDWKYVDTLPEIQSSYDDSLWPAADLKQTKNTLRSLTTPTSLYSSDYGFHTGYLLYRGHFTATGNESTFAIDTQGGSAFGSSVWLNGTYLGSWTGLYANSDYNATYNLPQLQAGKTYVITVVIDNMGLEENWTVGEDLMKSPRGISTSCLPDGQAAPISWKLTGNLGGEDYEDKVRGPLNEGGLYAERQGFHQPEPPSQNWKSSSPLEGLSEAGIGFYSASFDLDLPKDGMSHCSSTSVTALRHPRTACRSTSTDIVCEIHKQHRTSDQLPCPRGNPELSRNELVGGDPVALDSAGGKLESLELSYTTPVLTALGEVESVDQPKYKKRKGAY

[9] = molecular target: T4, Beta-galactosidase (Bos taurus) (UniProt Q58D55); assay: Percentage inhibition of Beta-galactosidase from Bovine liver at 1 mM concentration
T4 sequence (whole entry): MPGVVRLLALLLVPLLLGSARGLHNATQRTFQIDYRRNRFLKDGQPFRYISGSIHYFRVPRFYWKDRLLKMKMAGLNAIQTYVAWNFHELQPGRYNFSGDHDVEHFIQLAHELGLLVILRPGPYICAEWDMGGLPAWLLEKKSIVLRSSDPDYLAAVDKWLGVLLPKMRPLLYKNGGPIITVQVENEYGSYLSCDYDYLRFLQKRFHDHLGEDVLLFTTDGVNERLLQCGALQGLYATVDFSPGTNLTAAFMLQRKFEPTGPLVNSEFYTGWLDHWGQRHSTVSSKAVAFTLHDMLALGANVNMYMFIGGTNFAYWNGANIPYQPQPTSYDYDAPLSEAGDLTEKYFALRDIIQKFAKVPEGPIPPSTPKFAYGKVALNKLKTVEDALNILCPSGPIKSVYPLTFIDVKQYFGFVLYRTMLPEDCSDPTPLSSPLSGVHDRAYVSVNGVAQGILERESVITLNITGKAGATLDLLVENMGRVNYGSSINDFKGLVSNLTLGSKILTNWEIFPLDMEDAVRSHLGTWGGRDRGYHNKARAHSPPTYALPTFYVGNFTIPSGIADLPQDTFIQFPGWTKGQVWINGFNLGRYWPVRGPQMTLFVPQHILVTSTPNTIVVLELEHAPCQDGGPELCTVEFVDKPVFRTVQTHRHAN

[10] = molecular target: Beta-galactosidase (Escherichia coli K-12) (UniProt P00722); assay: Percentage inhibition of Beta-galactosidase from Escherichia coli at 1 mM concentration
[11] = molecular target: T5, Glucoamylase 1 (Rhizopus oryzae) (UniProt P07683); assay: Percentage inhibition of Alpha-glucosidase from Rhizopus mold (amyloglucosidase) at 1 mM concentration; No inhibition; conditions: Rhizopus arrhizus
T5 sequence (whole entry): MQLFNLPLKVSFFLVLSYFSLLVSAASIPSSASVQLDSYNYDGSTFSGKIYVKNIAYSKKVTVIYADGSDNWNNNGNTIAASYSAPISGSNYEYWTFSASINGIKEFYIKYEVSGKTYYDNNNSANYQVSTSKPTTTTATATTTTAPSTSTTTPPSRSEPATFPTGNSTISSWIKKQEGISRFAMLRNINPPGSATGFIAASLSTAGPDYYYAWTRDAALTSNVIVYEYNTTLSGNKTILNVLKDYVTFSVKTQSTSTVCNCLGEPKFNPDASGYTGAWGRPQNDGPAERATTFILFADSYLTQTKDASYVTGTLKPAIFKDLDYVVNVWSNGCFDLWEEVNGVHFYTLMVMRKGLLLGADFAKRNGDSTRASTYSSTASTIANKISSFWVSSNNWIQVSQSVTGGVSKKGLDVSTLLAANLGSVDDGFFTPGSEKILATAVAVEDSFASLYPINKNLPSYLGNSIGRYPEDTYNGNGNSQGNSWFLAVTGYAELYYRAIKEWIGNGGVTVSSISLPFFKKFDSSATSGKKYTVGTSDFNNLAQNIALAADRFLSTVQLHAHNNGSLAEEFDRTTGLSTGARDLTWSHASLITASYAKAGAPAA

[12] = system: Saccharomyces cerevisiae; assay: Percentage inhibition of Alpha-glucosidase from Yeast (maltase) at 1 mM
[13] = molecular target: T6, Beta-galactosidase (Bos taurus, UniProt Q58D55); assay: Inhibitory activity towards Beta-galactosidase from Bovine liver
T6 sequence (Q58D55 whole entry): T4 sequence (whole entry)

[14] = Inhibitory activity towards Beta-galactosidase from Aspergillus oryzae
[15] = molecular target: T5, Glucoamylase 1 (Rhizopus oryzae); assay: Percentage inhibition of Alpha-glucosidase from Rhizopus mold (amyloglucosidase) at 1 mM concentration; conditions: Rhizopus arrhizus
[16] = Percentage inhibition of Beta-galactosidase from Aspergillus oryzae at 1 mM
[17] = molecular target: Beta-glucosidase A (Caldicellulosiruptor saccharolyticus) (UniProt P10482); assay: Percentage inhibition of Beta-Glucosidase from Caldocellum saccharol. at 1 mM; No inhibition
[18] = system: Saccharomyces cerevisiae; assay: Percentage inhibition of Alpha-glucosidase from Yeast (maltase) at 1 mM; […]
[19] = molecular target: Glucoamylase (Aspergillus niger) (UniProt P69328); assay: Percentage inhibition of Alpha-glucosidase from Aspergillus niger (amyloglucosidase) at 1 mM
[20] = molecular target: T2, Alpha-glucosidase (Oryza sativa Japonica Group); assay: Percentage inhibition of Alpha-glucosidase from Rice (maltase) at 1 mM
[21] = molecular target: T4, Beta-galactosidase (Bos taurus); assay: Percentage inhibition of Beta-galactosidase from Bovine liver at 1 mM; No inhibition
[22] = Percentage inhibition of Beta-galactosidase from Jack bean at 1 mM concentration; conditions: Canavalia ensiformis
[23] = Inhibitory activity towards Alpha-glucosidase from Baker yeast (isomaltase); design: species or system Saccharomyces cerevisiae
[24] = molecular target: T1, Beta-glucosidase A; assay: Inhibitory activity towards Beta-Glucosidase from Caldocellum saccharol
[25] = molecular target: T4, Beta-galactosidase (Bos taurus); assay: Percentage inhibition of Beta-galactosidase from Bovine liver at 1 mM concentration; No inhibition
[26] = Inhibitory activity towards Alpha-glucosidase from Yeast (maltase); design: species or system Saccharomyces cerevisiae
[27] = molecular target: T7, Beta-galactosidase (Aspergillus niger, UniProt P29853); assay: Inhibitory activity towards Beta-galactosidase from Aspergillus niger
T7 sequence (P29853 whole entry): T3 sequence (whole entry)

[28] = molecular target: Beta-galactosidase (Escherichia coli K-12) (UniProt P00722); assay: Percentage inhibition of Beta-galactosidase from Escherichia coli at 1 mM concentration; No inhibition

Beta-galactosidase (Escherichia coli K-12), sequence (P00722 whole entry): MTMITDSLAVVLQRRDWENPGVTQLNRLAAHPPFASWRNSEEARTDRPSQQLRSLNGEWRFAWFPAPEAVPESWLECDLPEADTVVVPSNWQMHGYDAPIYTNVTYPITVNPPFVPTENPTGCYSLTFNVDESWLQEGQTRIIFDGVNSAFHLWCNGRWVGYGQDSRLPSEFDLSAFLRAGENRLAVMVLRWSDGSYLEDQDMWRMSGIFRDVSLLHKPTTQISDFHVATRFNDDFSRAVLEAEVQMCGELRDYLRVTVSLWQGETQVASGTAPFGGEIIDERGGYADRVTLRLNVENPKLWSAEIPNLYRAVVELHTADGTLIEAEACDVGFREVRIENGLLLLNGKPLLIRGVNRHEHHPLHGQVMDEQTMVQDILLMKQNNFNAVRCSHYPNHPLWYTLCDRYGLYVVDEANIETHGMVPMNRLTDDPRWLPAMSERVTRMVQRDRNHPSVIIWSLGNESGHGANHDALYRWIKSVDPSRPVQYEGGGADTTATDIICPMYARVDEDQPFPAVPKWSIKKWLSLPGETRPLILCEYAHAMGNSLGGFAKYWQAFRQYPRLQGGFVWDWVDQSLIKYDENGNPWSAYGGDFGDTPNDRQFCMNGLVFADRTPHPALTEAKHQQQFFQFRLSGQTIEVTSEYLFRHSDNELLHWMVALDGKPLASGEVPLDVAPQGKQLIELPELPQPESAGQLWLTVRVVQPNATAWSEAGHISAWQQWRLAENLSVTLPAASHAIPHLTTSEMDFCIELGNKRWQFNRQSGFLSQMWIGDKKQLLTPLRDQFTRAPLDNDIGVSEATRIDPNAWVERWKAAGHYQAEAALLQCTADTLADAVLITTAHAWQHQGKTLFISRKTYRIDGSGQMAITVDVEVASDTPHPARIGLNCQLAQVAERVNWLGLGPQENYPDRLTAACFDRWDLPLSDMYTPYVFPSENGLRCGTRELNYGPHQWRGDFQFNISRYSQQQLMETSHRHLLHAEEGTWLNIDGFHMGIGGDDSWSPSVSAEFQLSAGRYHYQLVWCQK
T1 sequence (P10482 whole entry): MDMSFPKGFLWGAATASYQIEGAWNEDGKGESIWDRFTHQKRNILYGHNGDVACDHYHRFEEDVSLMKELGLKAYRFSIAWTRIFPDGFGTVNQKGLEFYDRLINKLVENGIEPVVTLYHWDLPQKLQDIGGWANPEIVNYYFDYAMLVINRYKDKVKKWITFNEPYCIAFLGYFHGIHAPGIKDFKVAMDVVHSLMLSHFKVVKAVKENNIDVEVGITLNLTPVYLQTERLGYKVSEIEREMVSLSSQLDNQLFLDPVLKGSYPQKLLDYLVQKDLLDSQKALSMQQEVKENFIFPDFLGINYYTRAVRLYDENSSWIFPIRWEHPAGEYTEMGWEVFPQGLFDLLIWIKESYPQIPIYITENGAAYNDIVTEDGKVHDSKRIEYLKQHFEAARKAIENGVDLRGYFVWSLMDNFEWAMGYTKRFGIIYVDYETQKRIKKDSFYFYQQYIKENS
Beta-glucosidase A (Caldicellulosiruptor saccharolyticus), sequence (P10482 whole entry): as above
Glucoamylase (Aspergillus niger), sequence (P69328 whole entry): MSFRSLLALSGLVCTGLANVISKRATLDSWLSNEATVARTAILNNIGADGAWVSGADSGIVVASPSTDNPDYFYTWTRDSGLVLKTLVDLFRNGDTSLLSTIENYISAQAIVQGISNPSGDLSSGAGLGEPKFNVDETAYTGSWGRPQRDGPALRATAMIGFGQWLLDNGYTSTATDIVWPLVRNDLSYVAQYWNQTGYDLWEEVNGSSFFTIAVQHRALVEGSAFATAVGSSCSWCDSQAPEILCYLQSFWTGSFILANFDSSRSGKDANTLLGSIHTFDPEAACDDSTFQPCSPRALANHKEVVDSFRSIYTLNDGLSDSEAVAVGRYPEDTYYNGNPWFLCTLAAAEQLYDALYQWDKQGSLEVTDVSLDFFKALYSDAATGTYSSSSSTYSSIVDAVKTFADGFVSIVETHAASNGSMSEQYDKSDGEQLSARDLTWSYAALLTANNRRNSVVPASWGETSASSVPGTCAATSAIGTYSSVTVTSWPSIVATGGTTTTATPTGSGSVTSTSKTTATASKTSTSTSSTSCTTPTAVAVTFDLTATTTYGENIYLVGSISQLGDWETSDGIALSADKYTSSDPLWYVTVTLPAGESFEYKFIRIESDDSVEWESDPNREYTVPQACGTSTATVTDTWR

CC(NCC1NCC(O)C1O)C(O)(c1ccccc1)c1ccccc1 (configuration not stated)
IC50 [1]: 320 µM
inhibition [2]: 46%
inhibition [3]: inactive
inhibition [4]: inactive
inhibition [5]: 72%
inhibition [6]: inactive
inhibition [7]: 48%
inhibition [8]: 29%
inhibition [9]: 84%
inhibition [10]: 25%
inhibition [11]: inactive
inhibition [12]: 28%
IC50 [13]: 140 µM
Ki [13]: 21 µM

O[C@@H]1CNC[C@@H]1O
inhibition [2]: 32%
IC50 [14]: 790 µM
inhibition [4]: inactive
inhibition [15]: 47%
inhibition [16]: 53%
inhibition [8]: 39%
inhibition [17]: inactive
inhibition [18]: inactive
inhibition [9]: 25%
inhibition [10]: 41%
inhibition [19]: 24%

NCC1NCC(O)C1O (configuration not stated)
inhibition [20]: 98%
inhibition [21]: inactive
inhibition [5]: 93%
inhibition [16]: 60%
inhibition [6]: inactive
inhibition [7]: 51%
inhibition [8]: 24%
inhibition [22]: 76%
inhibition [10]: 92%
inhibition [11]: inactive
inhibition [12]: 84%

OC1CNC(CNCn2ccnc2)C1O (configuration not stated)
IC50 [1]: 290 µM
inhibition [2]: 90%
IC50 [23]: 120 µM
Ki [23]: 40 µM
inhibition [4]: inactive
inhibition [5]: 76%
inhibition [16]: 24%
inhibition [6]: inactive
inhibition [7]: 59%
inhibition [8]: 41%
Ki [24]: 120 µM
inhibition [25]: inactive
inhibition [10]: 49%
inhibition [11]: inactive
inhibition [12]: 55%
IC50 [26]: 610 µM

OC(O)CC1NCC(O)C1O (configuration not stated)
inhibition [2]: 28%
IC50 [27]: 140 µM
Ki [27]: 200 µM
IC50 [14]: 75 µM
Ki [14]: 75 µM
inhibition [4]: inactive
inhibition [15]: 40%
inhibition [5]: 90%
inhibition [16]: 80%
inhibition [8]: 91%
inhibition [18]: inactive
inhibition [9]: 32%
inhibition [10]: 48%
inhibition [19]: 21%

OC1CNC(CNCc2ccco2)C1O (configuration not stated)
IC50 [1]: 250 µM
inhibition [2]: 94%
IC50 [23]: 65 µM
Ki [23]: 45 µM
inhibition [3]: inactive
inhibition [4]: inactive
inhibition [5]: 75%
inhibition [6]: inactive
inhibition [7]: 29%
inhibition [8]: 39%
inhibition [28]: inactive
Ki [24]: 60 µM
inhibition [25]: inactive
inhibition [11]: inactive
inhibition [12]: 66%
IC50 [26]: 280 µM
